# Measured values as given in patent US4331803A, “Novel erythromycin compounds” (Taisho Pharmaceutical Co., Ltd., priority 1980, dated 1982).
# Like-named read-outs stand apart in the source and are kept apart here.
# What was measured:
# [1] = system: Staphylococcus aureus TPR-7; assay: Antibacterial activity, agar plate dilution method (MIC); assay type: cell-based
# Experimental: (§1) The compound of the formula(I) was tested for the antibacterial activity by the agar plate dilution method, using erythromycin A for the control.
# **Strain resistant to sulfonamides and tetracyclines
# [2] = system: Staphylococcus aureus TPR-5; assay: as above; assay type: cell-based
# Experimental: as §1
# *Strain resistant to sulfonamides and penicillins
# [3] = system: Staphylococcus epidermidis TPR-14; assay: as above; assay type: cell-based
# Experimental: as §1
# ***Strain resistant to sulfonamides, penicillins and chloramphenicol
# [4] = system: Staphylococcus aureus Smith No. 4; assay: In vivo activity, survival of infected mice after oral administration; design: species or system male ddY mice; settings: 1 h after inoculation, 14 mice per group, 7 days
# Experimental: Male ddY mice (body weight, 18-22 g; 14 mice per group) were inoculated with Staphylococcus aureus Smith No. 4. The compound of the formula(I) was administered orally one hour after the inoculation, and the number of mice surviving for seven days after the administration was noted.
# [5] = system: Staphylococcus aureus Smith; assay: Antibacterial activity, agar plate dilution method (MIC); assay type: cell-based; settings: read-out: MIC value
# Experimental: as §1
# [6] = system: Micrococcus luteus ATCC 9341; assay: as above; assay type: cell-based
# Experimental: as §1
# [7] = system: Bacillus subtilis ATCC 6633; assay: as above; assay type: cell-based
# Experimental: as §1
# [8] = system: Streptococcus faecalis ATCC 8043; assay: as above; assay type: cell-based; settings: Enterococcus faecalis
# Experimental: as §1
# [9] = system: Staphylococcus epidermidis IID866; assay: as above; assay type: cell-based
# Experimental: as §1
# [10] = system: Staphylococcus aureus FDA 209P; assay: as above; assay type: cell-based; settings: FDA209P, read-out: MIC value
# Experimental: as §1
# [11] = system: Bacillus cereus ATCC 9634; assay: as above; assay type: cell-based
# Experimental: as §1
# [12] = system: Staphylococcus aureus Terashima; assay: as above; assay type: cell-based; settings: read-out: MIC value
# Experimental: as §1
# [13] = system: Staphylococcus aureus FDA 209P; assay: Acid stability (pH 2), remaining antibacterial activity by disc method; assay type: physicochemical; settings: pH 2, Clark-Lubs's buffer, 0 min
# Experimental: (§2) The compound of the formula(I) was treated in the Clark-Lubs's buffer solution at pH 2 for the prescribed period of time.
# (§3) Thereafter, the remaining antibacterial activity was determined by a disc method, using Staphylococcus aureus FDA 209P. Erthromycin A was also tested for the control.
# [14] = as above; assay type: physicochemical, Staphylococcus aureus FDA 209P
# Experimental: as §2, §3
# [15] = cited from earlier work
# [16] = TPR7, Staphylococcus aureus TPR-7, resistant to sulfonamides and tetracyclines, read-out: MIC value
# [17] = TPR5, Staphylococcus aureus TPR-5, resistant to sulfonamides and penicillins, read-out: MIC value
# [18] = TPR14, Staphylococcus epidermidis TPR-14, resistant to sulfonamides, penicillins and chloramphenicol, read-out: MIC value
# [19] = ATCC9341, Micrococcus luteus ATCC 9341, read-out: MIC value
# [20] = ATCC6633, Bacillus subtilis ATCC 6633, read-out: MIC value
# [21] = ATCC8043, Streptococcus faecalis ATCC 8043, read-out: MIC value
# [22] = Staphylococcus epidermidis IID866, read-out: MIC value
# [23] = ATCC9634, Bacillus cereus ATCC 9634, read-out: MIC value
# [24] = Staphylococcus aureus Terashima
Structure (SMILES),"MIC [1, 16]","MIC [2, 17]","MIC [3, 18]",The number of surviving mice ([4]; 0.40 mg/kg oral),The number of surviving mice ([4]; 1.56 mg/kg oral),The number of surviving mice ([4]; 6.25 mg/kg oral),The number of surviving mice ([4]; 25 mg/kg oral),The number of surviving mice ([4]; 100 mg/kg oral),The number of surviving mice ([4]; 400 mg/kg oral),MIC ([5]; Staphylococcus aureus Smith),"MIC [6, 19]","MIC [7, 20]","MIC [8, 21]","MIC [9, 22]",MIC ([10]; Staphylococcus aureus FDA 209P),"MIC [11, 23]","MIC [12, 24]",Remaining activity [13],"remaining at 0.25 h ([14]; clark-lubs buffer, pH 2)","remaining at 0.5 h ([14]; clark-lubs buffer, pH 2)",other results
"CC[C@H]1OC(=O)[C@H](C)[C@@H](O[C@H]2C[C@@](C)(OC)[C@@H](O)[C@H](C)O2)[C@H](C)[C@@H](O[C@@H]2O[C@H](C)C[C@H](N(C)C)[C@H]2O)[C@](C)(OC)C[C@@H](C)C(=O)[C@H](C)[C@@H](OC)[C@]1(C)O [TE-032, 6,11-di-O-methylerythromycin A]",0.4 µg/mL,0.4 µg/mL,0.4 µg/mL,0 mice,0 mice,4 mice,7 mice,14 mice,14 mice,0.1 µg/mL,≤ 0.05 µg/mL,0.05 µg/mL,0.05 µg/mL,0.4 µg/mL,0.1 µg/mL,0.4 µg/mL,0.4 µg/mL,100%,100%,95%,"remaining at 1 h ([14]; clark-lubs buffer, pH 2): 85%; remaining at 2 h ([14]; clark-lubs buffer, pH 2): 65%"
"CC[C@H]1OC(=O)[C@H](C)[C@@H](O[C@H]2C[C@@](C)(OC)[C@@H](O)[C@H](C)O2)[C@H](C)[C@@H](O[C@@H]2O[C@H](C)C[C@H](N(C)C)[C@H]2O)[C@](C)(O)C[C@@H](C)C(=O)[C@H](C)[C@@H](O)[C@]1(C)O [Erythromycin A, erythromycin A, reference compound]",,,,0 mice,0 mice,0 mice,1 mice,11 mice,14 mice,,,,,,,,,100%,,,"MIC ([1]; Staphylococcus aureus, TPR7, read-out: MIC value): 0.4 µg/mL; MIC ([2]; Staphylococcus aureus, TPR5, read-out: MIC value): 0.4 µg/mL; MIC ([3]; Staphylococcus epidermidis, TPR14, read-out: MIC value): 0.4 µg/mL; antibacterial activity after oral administration (acid in stomach) [15]: loses rapidly the antibacterial activity; blood concentration ([15]; oral): remains at a low level; MIC ([5]; Staphylococcus aureus): 0.4 µg/mL; MIC ([6]; Micrococcus luteus, ATCC9341, read-out: MIC value): ≤ 0.05 µg/mL; MIC ([7]; Bacillus subtilis, ATCC6633, read-out: MIC value): 0.1 µg/mL; MIC ([8]; ATCC8043, read-out: MIC value): 0.05 µg/mL; MIC ([9]; Staphylococcus epidermidis, IID866, read-out: MIC value): 0.4 µg/mL; MIC ([10]; Staphylococcus aureus): 0.2 µg/mL; MIC ([11]; Bacillus cereus, ATCC9634, read-out: MIC value): 0.4 µg/mL; MIC ([12]; Staphylococcus aureus): 0.4 µg/mL; remaining at 0.25 h ([14]; pH 2, Clark-Lubs's buffer, 15 min, read-out: Remaining activity): 1.5%; remaining at 0.5 h ([14]; pH 2, Clark-Lubs's buffer, 30 min, read-out: Remaining activity): 0.5%; remaining at 1 h ([14]; pH 2, Clark-Lubs's buffer, 60 min, read-out: Remaining activity): 0%; remaining at 2 h ([14]; pH 2, Clark-Lubs's buffer, 120 min, read-out: Remaining activity): 0%"
"CC[C@H]1OC(=O)[C@H](C)[C@@H](O[C@H]2C[C@@](C)(OC)[C@@H](O)[C@H](C)O2)[C@H](C)[C@@H](O[C@@H]2O[C@H](C)C[C@H](N(C)C)[C@H]2O)[C@](C)(OC)C[C@@H](C)C(=O)[C@H](C)[C@@H](O)[C@]1(C)O [TE-031, 6-O-methylerythromycin A]",0.2 µg/mL,0.2 µg/mL,0.2 µg/mL,0 mice,1 mice,3 mice,13 mice,14 mice,14 mice,0.2 µg/mL,≤ 0.05 µg/mL,0.05 µg/mL,0.05 µg/mL,0.2 µg/mL,0.05 µg/mL,0.2 µg/mL,0.2 µg/mL,100%,100%,95%,"remaining at 1 h ([14]; clark-lubs buffer, pH 2): 80%; remaining at 2 h ([14]; clark-lubs buffer, pH 2): 65%"
